Results on 17 compounds are retold here after patent US20030216569A1, “Method of making HIV protease inhibitors” (priority 1993, published 2003).

Values joined by “and” are separate entries in the source; they are usually repeats but may differ in a detail not shown here. Equal entries are not always repeated. Where two headings read alike, the source gives them in different places. Marks after values point to notes of the source that are not given here.

The target of the assay is HIV-1 protease (Human immunodeficiency virus type 1 group M subtype B, UniProt P04585). Nature of the assay: Fluorescence HIV-1 Protease Inhibitor Assay (Pandex). Format: biochemical. More on the design: made in house; host or cells: E. coli K12 L507/pHP10D (NRRL B-18560).
Where [1] appears, read: normalized to positive control (=1.0), * = a calculated average, read-out: Fluorescence Assay IC50 in ng/mL (converted).
Setting [2] is: value as run, 35B value of the same run in footnote or parentheses, read-out: Pandex IC50 ng/ml (converted).
Where [3] appears, read: normalized to positive control (=1.0), * = a calculated average.
Setting [4] is: value as run, 35B value of the same run in footnote or parentheses.

For the compound `CC(C)(C)NC(=O)C1CC2CCCCC2CN1CC(O)C(Cc1ccccc1)NC(=O)c1cccc(O)c1F` (stereo not drawn) [Example 1, [3S-(3R*,4aR*,8aR*,2′S*,3′R*)]-2-[2′-Hydroxy-3′-phenylmethyl-4′-aza-5′-oxo-5′-(2″-fluoro-3″-hydroxyphenyl)pentyl]decahydroisoquinoline-3-N-t-butylcarboxamide], the IC50 was 1.78 µM under setting [1] and 0.856 µM under setting [2].
The corresponding values for `CC(C)(C)NC(=O)C1CC2CCCCC2CN1CC(O)C(Cc1ccccc1)NC(=O)c1cccnc1Cl` (stereo not drawn) [Example 2, [3S-(3R*,4aR*,8aR*,2′S*,3′R*)]-2-[2′-Hydroxy-3′-phenylmethyl-4′-aza-5′-oxo-5′-(2″-chloro-pyrid-3″-yl)pentyl] decahydroisoquinoline-3-N-t-butylcarboxamide] are 2 µM and 0.963 µM.
The corresponding values for `CCc1c(O)cccc1C(=O)NC(Cc1ccccc1)C(O)CN1CC2CCCCC2CC1C(=O)NC(C)(C)C` (stereo not drawn) [Example 3, [3S-(3R*,4aR*,8aR*,2′S*,3′R*)]-2-[2′-Hydroxy-3′-phenylmethyl-4′-aza-5′-oxo-5′-(2″-ethyl-3″-hydroxyphenyl)pentyl] decahydroisoguinoline-3-N-t-butylcarboxamide] are 0.044 µM and 0.0211 µM.
For the compound `CC(C)(C)NC(=O)C1CC2CCCCC2CN1CC(O)C(Cc1ccccc1)NC(=O)c1ccc[n+]([O-])c1` (stereo not drawn) [Example 5, [3S-(3R*,4aR*,8aR*,2′S*,3′R*)]-2-[2′-Hydroxy-3′-phenylmethyl-4′-aza-5′-oxo-5′-(pyrid-3″yl-N-oxidyl)pentyl] decahydroisoquinoline-3-N-t-butylcarboxamide], the IC50 is 5.03 µM under setting [1] and 1.91 µM under setting [2].
For the compound `CC(C)(C)NC(=O)C1CC2CCCCC2CN1CC(O)C(Cc1ccccc1)NC(=O)c1cccc(O)c1Cl` (stereo not drawn) [Example 11, [3S-(3R*,4aR*,8aR*,2′S*,3′R*)]-2-[2′-Hydroxy-3′-phenylmethyl-4′-aza-5′-oxo-5′-(2″-chloro-3″-hydroxyphenyl)pentyl] decahydroisoquinoline-3-N-t-butylcarboxamide], the IC50 by setting is: under setting [1], 0.00917 µM; under setting [2], 0.0246 µM.
Regarding `Cc1c(O)cccc1C(=O)NC(Cc1ccccc1)C(O)CN1CC2CCCCC2CC1C(=O)NC(C)(C)C` (stereo not drawn) [Example 12, [3S-(3R*,4aR*,8aR*,2′S*,3′R*)]-2-[2′-Hydroxy-3′-phenylmethyl-4′-aza-5′-oxo-5′-(2″-methyl-3″-hydroxyphenyl)pentyl] decahydroisoquinoline-3-N-t-butylcarboxamide], the IC50 reads like this: under setting [1], 0.0155 µM; under setting [2], 0.0213 µM and 0.00523 µM and 0.0175 µM.
Regarding `CC(C)(C)NC(=O)C1CC2CCCCC2CN1CC(O)C(Cc1ccccc1)NC(=O)c1ccccc1C(F)(F)F` (stereo not drawn) [Example 15, [3S-(3R*,4aR*,8aR*,2′S*,3′R*)]-2-[2′-Hydroxy-3′-phenylmethyl-4′-aza-5′-oxo-5′-(2″-trifluoromethylphenyl)pentyl] decahydroisoquinoline-3-N-t-butylcarboxamide], the IC50 reads like this: under setting [1], 0.657 µM; under setting [2], 0.315 µM.
As to `CC(C)(C)NC(=O)C1CC2CCCCC2CN1CC(O)C(Cc1ccccc1)NC(=O)c1c(Cl)ccc(O)c1Cl` (stereo not drawn) [Example 17, [3S-(3R*,4aR*,8aR*,2′S*,3′R*)]-2-[2′-Hydroxy-3′-phenylmethyl-4′-aza-5′-oxo-5′-(2″,6″-dichloro-3″-hydroxyphenyl)pentyl] decahydroisoquinoline-3-N-t-butylcarboxamide], under setting [3], the “Fluorescence Assay IC50 in ng/mL” value is reported as 269* ng/mL. For the same compound, under setting [4], the “Pandex IC50 ng/ml” value is recorded as 346^b ng/ml.
With `Cc1c(N)cccc1C(=O)NC(Cc1ccccc1)C(O)CN1CC2CCCCC2CC1C(=O)NC(C)(C)C` (stereo not drawn) [Example 18, [3S-(3R*,4aR*,8aR*,2′S*,3′R*)]-2-[2′-Hydroxy-3′-phenylmethyl-4′-aza-5′-oxo-5′-(2″-methyl-3″-aminophenyl)pentyl] decahydroisoquinoline-3-N-t-butylcarboxamide], the IC50 is 0.126 µM under setting [1] and 0.0178 µM under setting [2].
The like results for `CC(C)c1c(O)cccc1C(=O)NC(Cc1ccccc1)C(O)CN1CC2CCCCC2CC1C(=O)NC(C)(C)C` (stereo not drawn) [Example 20, [3S-(3R*,4aR*,8aR*,2′S*,3′R*)]-2-[2′-Hydroxy-3′-phenylmethyl-4′-aza-5′-oxo-5′-(2″-iospropyl-3″-hydroxyphenyl)pentyl] decahydroisoquinoline-3-N-t-butylcarboxamide] were, in that order, 0.0115 µM and 0.151 µM.
The corresponding values for `CCCCc1c(O)cccc1C(=O)NC(Cc1ccccc1)C(O)CN1CC2CCCCC2CC1C(=O)NC(C)(C)C` (stereo not drawn) [Example 21, [3S-(3R*,4aR*,8aR*,2′S*,3′R*)]-2-[2′-Hydroxy-3′-phenylmethyl-4′-aza-5′-oxo-5′-(2″-butyl-3′″-hydroxyphenyl)pentyl] decahydroisoquinoline-3-N-t-butylcarboxamide] are 0.0163 µM and 0.0137 µM.
`CCCc1c(O)cccc1C(=O)NC(Cc1ccccc1)C(O)CN1CC2CCCCC2CC1C(=O)NC(C)(C)C` (stereo not drawn) [Example 22, [3S-(3R*,4aR*,8aR*,2′S*,3′R*)]-2-[2′-Hydroxy-3′-phenylmethyl-4′-aza-5′-oxo-5′-(2″-propyl-3″-hydroxyphenyl)pentyl] decahydroisoquinoline-3-N-t-butylcarboxamide]: the IC50 was 0.00129 µM under setting [1] and 0.124 µM under setting [2].
With `Cc1c(O)cccc1C(=O)NC(Cc1ccccc1)C(O)CN1CC2CCCCC2CC1C(=O)NC(C)(C)C` (stereo not drawn) [Example 23, [3S-(3R*,4aR*,8aR*,2′S*,3′R*)]-2-[2′-Hydroxy-3′-phenylmethyl-4′-aza-5′-oxo-5′-(2″-methyl-3″-hydroxyphenyl)pentyl] decahydroisoquinoline-3-N-t-butylcarboxamide], the “Fluorescence Assay IC50” value under setting [3] is 0.00025 mg/L. Also, under setting [4], the “Pandex IC50 ng/ml” value is 0.2^c ng/ml and 0.16^d ng/ml and 0.2^b ng/ml.
Regarding `Cc1c(O)cccc1C(=O)NC(CSc1ccc2ccccc2c1)C(O)CN1CC2CCCCC2CC1C(=O)NC(C)(C)C` (stereo not drawn) [Example 24, [3S-(3R*,4aR*,8aR*,2′S*,3′R*)]-2-[2′-Hydroxy-3′-(naphth-2-ylthiomethyl)-4′-aza-5′-oxo-5′-(2″-methyl-3″-hydroxyphenyl)pentyl] decahydroisoquinoline-3-N-t-butylcarboxamide], where the note is “at 20 ng/ml”, the “Pandex % at 20 ng/ml” value was 84%/20^d. For the same compound, the IC50 was 0.00939 µM under setting [1] and 0.00453 µM under setting [2].
For `Cc1c(O)cccc1C(=O)N[C@@H](CSc1ccc2ccccc2c1)[C@H](O)CN1CCCC[C@H]1C(=O)NC(C)(C)C` [Example 25, [2S-(2R*,2′S*,3′S*)]-1-[2′-Hydroxy-3′-(naphth-2-ylthiomethyl-4′-aza-5′-oxo-5′-(2″-methyl-3″-hydroxyphenyl)pentyl]piperidine-2-N-t-butylcarboxamide], the IC50 is 0.00568 µM under setting [1]; 0.00355 µM and 0.0254 µM under setting [2].
On to `Cc1c(O)cccc1C(=O)N[C@@H](Cc1ccccc1)[C@H](O)CN1CCN(Cc2cccnc2)C[C@H]1C(=O)NC(C)(C)C` [Example 26, [2S-(2R*,2′S*,3′R*)]-1-[2′-Hydroxy-3′-phenylmethyl-4′-aza-5′-oxo-5′-(2″-methyl-3″-hydroxyphenyl)pentyl]-4-(pyrid-3′″-ylmethyl) piperazine-2-N-t-butylcarboxamide], for which the IC50 is 0.0054 µM under setting [1] and 0.00401 µM under setting [2].
For “[3S-(3R*,4aR*,8aR*,2′S*,3′S*)]-2-[2′-Hydroxy-3′-phenylmethyl-4′-aza-5′-oxo-5′-[2″-methyl-3″-N-(methylsulfonyl)amino-phenyl)]pentyl] decahydroisoguinoline-3-N-t-butylcarboxamide [Example 36]”, the “Fluorescence Assay IC50” value under setting [3] is 0.062 mg/L. Further, under setting [4], the “Pandex IC50 ng/ml” value is listed as 93^e ng/ml.
